In this assay the test system is flexor digitorum profundus tendon. Kind of assay: Evaluation of antiadhesive effect in cut and sutured flexor digitorum profundus tendon (adhesion score, 3 portions). In kind it is in vivo, rabbit. The following applies: 0.15 mL, 2 weeks. The method, then: As supplied animals, 13-week old rabbits (Kbl: JW, male) were used. By the same procedure as in the above-described Test Example 1, anesthesia, hair removal, holding, and sterilization were performed. Next, the skin covering a metatarsus of the left hind limb was incised longitudinally under anesthesia to expose flexor tendons. Among the exposed flexor tendons, a flexor digitorum profundus tendon was cut by sharp dissection using a scalpel. Then, the dissected region of the flexor digitorum profundus tendon was sutured with a suture (trade name: “6-0 Prolene”, Ethicon, Inc.) by a modified Kessler technique, hemostasis and washing with physiological saline were performed. Then, test samples were administered to the exposed flexor digitorum profundus tendon and its surroundings. The test samples were administered as follows. […] Then, the incised portion was sutured with a suture (trade name: “5-0 suture with needle for clinical use”, Matsuda Ika Kogyo CO., LTD.). The rabbit was fed with an e-collar around the neck to prevent self-injurious behavior. At 2 weeks after administration of the test sample, the rabbit was painlessly sacrificed by an overdose of Somnopentil (a trade name “pentobarbital sodium”, Kyoritsu Seiyaku Corporation) by auricular vein administration. The operated site was incised again, and degrees of adhesion were evaluated according to the criteria with respect to the following three portions: between flexor digitorum profundus tendon and gliding floor, between flexor digitorum profundus tendon and flexor digitorum superficialis tendon, and between flexor digitorum profundus tendon and other surrounding tissues. The total of the scores of the three portions was designated as a score for the individual. <Evaluation Criteria> 0: No adhesion 1: Easily dissectable from surrounding tissues by blunt dissection 2: Dissectable from surrounding tissues by blunt dissection 3: Dissection from surrounding tissues requires slightly sharp dissection 4: Dissection from surrounding tissues requires completely sharp dissection

Where [1] appears, read: Test Example 5, peptide 30% by weight with crosslinked-gelatin sponge gel powder (B) 20% by weight.
The mark [2] stands for this setting: Test Example 9, tripeptide 30% by weight with gel powder (B) 20% by weight.
[3] abbreviates: Test Example 7, peptide 30% by weight with gel powder (B) 20% by weight.
[4] abbreviates: Test Example 6, peptide 30% by weight with gel powder (B) 20% by weight.

Entries after “also recorded” stand apart in the source; their conditions may differ. Non-standard residues stand in square brackets, D forms with d. No end group written: not given here. Hyp = O=C(O)[C@@H]1C[C@@H](O)CN1

As to “Gly-Pro-Ala [tripeptide 3, reference compound]”, the antiadhesive effect entry under setting [1] is listed as “the antiadhesive effect was inferior to the case in which peptide mixture 1 was used”.
Tyr-Pro-[Hyp] [tripeptide 8]: under setting [2], the antiadhesive effect entry is recorded as “antiadhesive effects were observed”.
On to (Gly-Pro-Hyp)5 [oligopeptide 1], for which the antiadhesive effect result under setting [3] was “antiadhesive effects were observed”.
Arg-Pro-[Hyp] [tripeptide 7]: under setting [2], the antiadhesive effect entry is reported as “antiadhesive effects were observed”.
As to (Gly-Pro-Hyp)10 [polypeptide 1], the antiadhesive effect result under setting [3] is “antiadhesive effects were observed; also recorded: lower than those in tripeptide 4 and oligopeptide 1”.
Take Gly-Pro-[Hyp] [tripeptide 4]: the antiadhesive effect entry is “the same antiadhesive effect as in the case in which both peptide mixture 1 and the crosslinked-gelatin sponge gel were administered was observed” under setting [1]; “contribute to the antiadhesive effect” under setting [4]; “antiadhesive effects were observed” under setting [3]; “antiadhesive effects were observed” under setting [2].
As for “Gly-Ala-[Hyp] [tripeptide 2, reference compound]”, the antiadhesive effect entry under setting [1] was “the antiadhesive effect was inferior to the case in which peptide mixture 1 was used”.
On to Ile-Pro-[Hyp] [tripeptide 5], for which the antiadhesive effect result under setting [2] is on record as “antiadhesive effects were observed”.
On to “Gly-Pro [dipeptide 2, reference compound]”, for which the antiadhesive effect result under setting [4] is “the antiadhesive effect was decreased”.
With Asn-Pro-[Hyp] [tripeptide 6], under setting [2], the antiadhesive effect entry is “antiadhesive effects were observed”.
On to Pro-Hyp [dipeptide 1], for which the antiadhesive effect result under setting [4] is on record as “contribute to the antiadhesive effect”.

These data come from patent US11484564B2, “Adhesion prevention material” (priority 2017, dated 2022).
